Measured values published in US20020133832A1, “Model systems for neuordegenerative and cardiovascular disorders” (priority 2000, published 2002).
Entries after “also recorded” stand apart in the source; their conditions may differ.

Legend:
Format in all cases: in vivo, mouse
T2+/− mice [1] = experiment: Percent seizure activity induced by open field stress; settings: T2 mice at 12 months of age, 0.05 mg/Kg body weight/day via drinking water, four weeks
Description: (§1) FIG. 7. (A) Sequence of seizure behaviors in a 12 month old T2+/− mouse. 1; behavioral arrest. 2; loss of balance and whole body jerking. 3; forelimb flexion. 4; recovery. (B) Comparison of percent seizure activity induced by open field stress in various lines of mice at 12 months of age. […] Percent seizure activity was then calculated by dividing the number of seizure-positive mice by the total number of mice tested. The total number of mice tested for each case is shown above the respective column in the graph. The ability of terazosin to rescue T2+/− mice from the seizure phenotype was tested by administering a target dose of 0.05 mg/kg body weight/day via the drinking water. After a four week pretreatment with the drug, percent seizure activity was determined. (C) Identical experiment to that described in B, except percent seizure activity was determined in lines of mice at seven months of age that were exposed to intraperitoneal injection (IPI) stress. IPI stress was administered to the mice by intraperitoneal injection of […] of sterile 0.9% NaCl.
The seizure event seen in W2+/−, S 1+/−, T1+/− and T2+/− mice at twelve months of age was evoked by exposure to the open field (i.e. handling-invoked stress) and was characterized by behavioral arrest, facial twitching, loss of balance, forelimb automatism, whole body jerking and hypersalivation. […]

T2+/− mice [2] = experiment: Percent seizure activity induced by intraperitoneal injection (IPI) stress; settings: T2 mice at 7 months of age, 0.05 mg/Kg body weight/day via drinking water, 4 weeks, 0.05 mg/kg/day
Description: as §1
Seizures seen in response to this intraperitoneal injection stress (IPI stress) resembled the open field stress-induced event in terms of severity, characteristics and duration. […]

S1+/− and T1+/− mice = experiment: Rescue of reduced rearing behavior (rearings/min) in the open field; settings: terazosin target dose 0.05 mg/kg body weight/day via drinking water, four weeks, L-DOPA as Sinemet
Source text: FIG. 6. An Active Open Field Activity System (Harvard Apparatus, Holliston, Mass.) was used to monitor total activity, distance traveled/min and number of rearings/min in age matched NT (▴), W2+/−(▪), S1+/−(●) and T1+/−(▾) and T2+/−(♦) mice. The open field for these experiments was a 16 inch by 16 inch enclosure with infrared beams of light aimed to form grids near the floor and 3 inches above the floor of the enclosure. (A) Total activity, or the total number of beam breaks each minute, was determined in two month old mice for a total time of 15 min. (B) A computer algorithm was used to calculate the distance traveled/min during horizontal ambulation by mice of varying age. (C) The number of rearings/minute was determined by electronically tallying the number of times mice of varying age reared onto their hindlimbs, facilitating a greater than 1 sec beam break in the upper grid (3 inches above the floor of the enclosure). (D) Snapshot of an 11 month old S1+/− mouse showing elongation of the torso caused by sprawling and dragging of the hindlimbs. (E) The ability of terazosin and L-DOPA to rescue the reduced number of rearings/min seen in eighteen month old S1+/− and T1+/− mice was tested by administering a target dose of 0.05 mg terazosin/kg body weight/day via the drinking water. After a four week pretreatment with the drug, the number of rearings/min was determined. All error bars in the Figurere present SEM (n>3) and significance in D was determined using analysis of variance with a two-tailed Student's t test (p<0.05).
Receptor overactivity was inhibited in S1+/− and T1+/− mice via treatment with the α1BAR-specific antagonist terazosin. Animals were treated with the drug at a target dose of 0.05 mg/Kg of body weight/day via the drinking water. […] (FIG. 6E).

Compound | percent seizure activity (T2+/− mice [1]) | percent seizure activity (T2+/− mice [2]) | rearing behavior (number of rearings/min) (S1+/− and T1+/− mice; eighteen month old S1+/− mice) | rearing behavior (number of rearings/min) (S1+/− and T1+/− mice; eighteen month old T1+/− mice)
COc1cc2nc(N3CCN(C(=O)C4CCCO4)CC3)nc(N)c2cc1OC (stereo not drawn) [terazosin] | partially reversible i.e., fewer events | reduced the number of younger T2+/− mice displaying IPI-induced seizures; also recorded: partially reversed the phenotype | partial rescue of the rearing behavior | partial rescue of the rearing behavior
N[C@@H](Cc1ccc(O)c(O)c1)C(=O)O [L-DOPA] | – | – | did not improve the locomotor activity | dramatically reversed the rearing deficit
